# Tests used:
# MCF-7 cells [1] = assay: Cell cycle analysis (propidium iodide, flow cytometry); assay type: cell-based, human; conditions: MCF-7, 25 μM, mean ± S.E.M.
# Experimental: The flow cytometric evaluation of the cell cycle status was performed as described previously. Briefly, 2×10^6 cells were centrifuged, washed twice with ice-cold PBS, and fixed in 70% ethanol. Tubes containing the cell pellets were stored at 4° C. for at least 24 hours. Cells were then centrifuged at 1000×g for 10 min and the supernatant was discarded. The pellets were washed twice with 5 ml of PBS and then stained with 0.5 ml of propidium iodide (0.1% in 0.6% Triton-X in PBS) and 0.5 ml of RNase A (2 mg/ml) for 45 minutes in dark. Samples were then analyzed on a FACSCalibur flow cytometer (Beckman Coulter Inc., Fullerton, Calif.).
# tubulin [2] = target: T1, tubulin; conditions: values with literature reference [18], [12], [43]; read-out: dissociation constant (Kd) for binding to tubulin; cited from earlier work
# T1 construct: other: 2 μM tubulin, 45 min at 37° C., double reciprocal plot; rate and extent of tubulin polymerization; other: 25 μM or 100 μM
# CEM cells = assay: In vitro cell proliferation MTS assay; assay type: cell-based; conditions: Homo sapiens, CCRF-CEM, 72 hours
# Experimental: (§1) Suspension cells (CEM, CEMNLB100 and CEM/VM-1-5) were cultured in RPMI-1640 media containing 10% FBS and then seeded into 96-well plates at a density of 5×10^3 cells per well and were treated with increasing gradient concentrations of 9-nitro-nos for 72 hours. Measurement of cell proliferation was performed colorimetrically by 3-(4,5-dimethylthiazol-2-yl)-5-(3-carboxymethoxyphenyl)-2-(4-sulphophenyl)-2H-tetrazolium, inner salt (MTS) assay, using the CellTiter96 AQueous One Solution Reagent (Promega, Madison, Wis.). Cells were exposed to MTS for 3 hours and absorbance was measured using a microplate reader (Molecular Devices, Sunnyvale, Calif.) at an optical density (OD) of 490 nm. The percentage of cell survival as a function of drug concentration for both the assays was then plotted to determine the IC50 value, which stands for the drug concentration needed to prevent cell proliferation by 50%.
# as §1, with “(CEM)” for “(CEM, CEMNLB100 and CEM/VM-1-5)”, “were” for “were cultured in RPMI-1640 media containing 10% FBS and then”, “increasing” for “increasing gradient”, “all halogenated analogs” for “9-nitro-nos”
# MDA-MB-231 cells = assay: Sulforhodamine B cell proliferation assay; assay type: cell-based; conditions: Homo sapiens; MDA-MB-231, 72 hours, SRB
# Experimental: (§2) Sulforhodamine B (SRB) assay: The cell proliferation assay was performed in 96-well plates as described previously. Adherent cells (MCF-7 and MDA-MB-231) were seeded in 96-well plates at a density of 5×10^3 cells per well. They were treated with increasing concentrations of the halogenated analogs the next day while in log-phase growth. After 72 hours of drug treatment, cells were fixed with 50% trichloroacetic acid and stained with 0.4% sulforhodamine B dissolved in 1% acetic acid. After 30 minutes, cells were then washed with 1% acetic acid to remove the unbound dye. The protein-bound dye was extracted with 10 mM Tris base to determine the optical density at 564-nm wavelength.
# tubulin [3] = conditions: even at 100 μM (Zhou et al., 2003); cited from earlier work
# MCF-7 cells [4] = assay: Sulforhodamine B cell proliferation assay; assay type: cell-based, human; conditions: Homo sapiens, MCF7, 72 h, MCF-7, 72 hours, SRB
# Experimental: as §2
# CEM/VM-1-5 cells = conditions: CEM/VM-1-5 (Morgan et al., 2000); cited from earlier work
# CEM/VLB100 cells = conditions: CEM/VLB100 (Beck and Cirtain, 1982); cited from earlier work
smiles,measurement,setting,value
"COc1ccc2c(c1OC)C(=O)O[C@@H]2[C@H]1c2c(cc3c(c2OC)OCO3)CCN1C [Nos, (S)-6,7-dimethoxy-3-((R)-4-methoxy-6-methyl-5,6,7,8-tetrahydro[1,3]-dioxolo-[4,5-g]isoquinolin-5-yl)isobenzo-furan-1(3H)-one, reference compound]",G0/G1,MCF-7 cells [1]; 0 h,54.8 ± 0.03%
same,G2/M,MCF-7 cells [1]; 0 h,29.9 ± 2.2%
same,S,MCF-7 cells [1]; 0 h,13.2 ± 0.2%
same,Sub-G1,MCF-7 cells [1]; 0 h,0.2 ± 0.03%
same,G0/G1,MCF-7 cells [1]; 24 h,18.3 ± 3.3%
same,G2/M,MCF-7 cells [1]; 24 h,50.2 ± 3.6%
same,S,MCF-7 cells [1]; 24 h,3.4 ± 0.8%
same,Sub-G1,MCF-7 cells [1]; 24 h,10.2 ± 1.2%
same,G0/G1,MCF-7 cells [1]; 48 h,19.8 ± 1.9%
same,G2/M,MCF-7 cells [1]; 48 h,28.07 ± 0.2%
same,S,MCF-7 cells [1]; 48 h,4.1 ± 0.6%
same,Sub-G1,MCF-7 cells [1]; 48 h,36.8 ± 3.7%
same,G0/G1,MCF-7 cells [1]; 72 h,20.5 ± 0.2%
same,G2/M,MCF-7 cells [1]; 72 h,26.3 ± 0.2%
same,S,MCF-7 cells [1]; 72 h,7.06 ± 0.2%
same,Sub-G1,MCF-7 cells [1]; 72 h,36.9 ± 0.2%
same,Kd,tubulin [2],144 ± 2.8 µM
same,IC50,CEM cells,16.6 ± 2.4 µM
same,IC50,MDA-MB-231 cells,36.3 ± 1.8 µM
same,microtubule polymerization upon binding tubulin,tubulin [3],does not significantly promote or inhibit microtubule polymerization
same,IC50,MCF-7 cells [4],39.6 ± 2.2 µM
COc1cc([C@@H]2c3cc4c(cc3[C@@H](O[C@@H]3O[C@@H]5CO[C@@H](c6cccs6)O[C@H]5[C@H](O)[C@H]3O)[C@H]3COC(=O)[C@H]23)OCO4)cc(OC)c1O [teniposide],resistance to teniposide,CEM/VM-1-5 cells,400 fold
CC[C@]1(O)C[C@@H]2CN(CCc3c([nH]c4ccccc34)[C@@](C(=O)OC)(c3cc4c(cc3OC)N(C)[C@H]3[C@@](O)(C(=O)OC)[C@H](OC(C)=O)[C@]5(CC)C=CCN6CC[C@]43[C@@H]65)C2)C1 [vinblastine],resistance to vinblastine,CEM/VLB100 cells,270 fold
